# Experimental data: patent publication US10092002B2, “Herbicidal composition comprising nicosulfuron or its salt and S -metolachlor or its salt” (ISHIHARA SANGYO KAISHA, LTD., priority 2011, dated 2018)
# What was measured:
# Assay type in all cases: in vivo
# [1] = test system: sunn-hemp (Crotalaria juncea L.); assay: Test Example 4: soil treatment, sunn-hemp, visual growth inhibition rate; details: Crotalaria juncea, soil, read-out: Growth inhibition rate (%) of sunn-hemp, Measured value
# From the text: In a case where three active ingredients are combined, the activity can be similarly calculated as follows. E2=(α+β+γ)−(αβ+αγ+βγ)/100+(αβγ)/10000 where α: growth inhibition rate when treated with x (g/ha) of herbicide X,
# Growth inhibition rate (%)=0 (equivalent to the non-treated area) to 100 (complete kill)
# Upland field soil was put into a 1/300,000 ha pot, and seeds of sunn-hemp (Crotalaria juncea L.) were sown.
# [2] = test system: common cocklebur (Xanthium strumarium L.); assay: Test Example 1: foliar treatment of common cocklebur in pots, visual growth inhibition rate; details: Xanthium strumarium, foliar treatment at 4.3 to 4.8-leaf stage, 22nd day after treatment, read-out: Growth inhibition rate (%) of common cocklebur, Measured value
# From the text: When the herbicidal activity in a case where two active ingredients are combined, is larger than the simple sum of the respective herbicidal activities of the two active ingredients (the expected activity), it is called a synergistic effect. The activity expected by the combination of two active ingredients can be calculated as follows (Colby S. R., “Weed”, vol. 15, p. 20-22, 1967). E1=α+β-(α×β÷100) In a case where three active ingredients are combined, the activity can be similarly calculated as follows. […] Upland field soil was put into a 1/1,000,000 ha pot, and seeds of common cocklebur (Xanthium strumarium L.) were sown. […] Dual Gold, manufactured by Syngenta Crop Protection AG), SC agent containing terbuthylazine as an active ingredient (tradename: Click, manufactured by BASF), SC agent containing mesotrione as an active ingredient (tradename: Callisto, manufactured by Syngenta Crop Protection AG) and WG agent containing prosulfuron as an active ingredient (tradename: Peak, manufactured by Syngenta Crop Protection AG) were diluted with water in an amount corresponding to 1,000 Uha, and applied for foliar treatment by a small sprayer. On the 22nd day after treatment, the state of growth of the common cocklebur was visually observed to determine the growth inhibition rate in accordance with the following evaluation standard. The growth inhibition rate (%) (measured value) and the growth inhibition rate (%) (calculated value) calculated by the Colby's formula are shown in Table 1.
# [3] = test system: wild oat (Avena fatua L.); assay: Test Example 3: soil treatment, wild oat, visual growth inhibition rate; details: Avena fatua, soil treatment the day after sowing, 14th day after treatment, read-out: Growth inhibition rate (%) of wild oat, Measured value
# From the text: When the herbicidal activity in a case where two active ingredients are combined, is larger than the simple sum of the respective herbicidal activities of the two active ingredients (the expected activity), it is called a synergistic effect. The activity expected by the combination of two active ingredients can be calculated as follows (Colby S. R., “Weed”, vol. 15, p. 20-22, 1967). […] In a case where three active ingredients are combined, the activity can be similarly calculated as follows. […] On the 22nd day after treatment, the state of growth of the common cocklebur was visually observed to determine the growth inhibition rate in accordance with the following evaluation standard. The growth inhibition rate (%) (measured value) and the growth inhibition rate (%) (calculated value) calculated by the Colby's formula are shown in Table 1. […] On the 14th day after treatment, the state of growth of the wild oat was visually observed to determine the growth inhibition rate.
structure (smiles),measurement,setting,value
"COCCOCc1nc(C(F)(F)F)ccc1C(=O)C1=C(O)C2CCC(C2)C1=O (centres unmarked) [Bicyclopyrone, 4-hydroxy-3-{2-[(2-methoxyethoxy)methyl]-6-(trifluoromethyl)-3-pyridylcarbonyl}bicyclo[3.2.1]oct-3-en-2-one]",inhibition at 25 g/ha,[1],0%
same,inhibition at 150 g/ha,[1],20%
"CS(=O)(=O)c1ccc(C(=O)C2C(=O)CCCC2=O)c([N+](=O)[O-])c1 [Mesotrione, 2-(4-mesyl-2-nitrobenzoyl)cyclohexane-1,3-dione]",inhibition at 50 g/ha,[2]; dose 50 g/ha,0%
same,inhibition at 25 g/ha,[3]; dose 25 g/ha,0%
same,inhibition at 150 g/ha,[3]; dose 150 g/ha,5%
"COc1nc(C)nc(NC(=O)NS(=O)(=O)c2ccccc2CCC(F)(F)F)n1 [Prosulfuron, 1-(4-methoxy-6-methyl-1,3,5-triazin-2-yl)-3-[2-(3,3,3-trifluoropropyl)phenylsulfonyl]urea]",inhibition at 15 g/ha,[2]; dose 15 g/ha,88%
same,inhibition at 2.5 g/ha,[3]; dose 2.5 g/ha,25%
same,inhibition at 50 g/ha,[3]; dose 50 g/ha,0%
"CCNc1nc(Cl)nc(NC(C)(C)C)n1 [Terbuthylazine, N^2-tert-butyl-6-chloro-N^4-ethyl-1,3,5-triazine-2,4-diamine]",inhibition at 500 g/ha,[2]; dose 500 g/ha,10%
same,inhibition at 250 g/ha,[3]; dose 250 g/ha,25%
same,inhibition at 1500 g/ha,[3]; dose 1500 g/ha,5%
